According to PubChem BioAssay (NCI):
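Where inhibition never reached the appropriate level, the endpoint shown equals the highest concentration tested. Otherwise, values were interpolated linearly from a five-concentration, 48-hour dose response in 96-well plates. The concentration for 50% growth inhibition is given as GI50. At the TGI there is no net growth.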

Assays:
Assay in all cases: inhibition of tumour cell growth, NCI panel, 48 h
NCI-H460 lung = system: NCI-H460 lung
HOP-62 NSCLC = system: HOP-62 NSCLC
SK-MEL-2 melanoma = system: SK-MEL-2 melanoma
HCT-116 colon = system: HCT-116 colon
HCC-2998 colon = system: HCC-2998 colon
LOX IMVI melanoma = system: LOX IMVI melanoma
HS 578T breast = system: HS 578T breast
OVCAR-3 ovarian = system: OVCAR-3 ovarian
M14 melanoma = system: M14 melanoma
NCI-H522 lung = system: NCI-H522 lung

Compound	TGI (NCI-H460 lung) [µM]	TGI (HOP-62 NSCLC) [µM]	TGI (SK-MEL-2 melanoma) [µM]	TGI (HCT-116 colon) [µM]	TGI (HCC-2998 colon) [µM]	TGI (LOX IMVI melanoma) [µM]	TGI (HS 578T breast) [µM]	TGI (OVCAR-3 ovarian) [µM]	TGI (M14 melanoma) [µM]	TGI (NCI-H522 lung) [µM]	GI50 (NCI-H460 lung) [µM]	GI50 (HOP-62 NSCLC) [µM]	GI50 (SK-MEL-2 melanoma) [µM]	GI50 (HCT-116 colon) [µM]	GI50 (HCC-2998 colon) [µM]	GI50 (LOX IMVI melanoma) [µM]	GI50 (HS 578T breast) [µM]	GI50 (OVCAR-3 ovarian) [µM]	GI50 (M14 melanoma) [µM]	GI50 (NCI-H522 lung) [µM]
C[C@H]1CC[C@@H]2[C@@H](C)[C@H]3[C@H](C[C@H]4[C@@H]5CC=C6C[C@@H](O)CC[C@]6(C)[C@H]5CC[C@]34C)N2C1	> 100	> 100	> 100	> 100	> 100	> 100	97.9	> 100	> 100	> 100	–	–	–	–	–	–	–	–	–	–
CN(C)CCOc1ccc2c(c1)C(=O)/C(=C\c1ncc([N+](=O)[O-])n1C)C2	0.808	4.34	1.93	1.28	1.75	1.85	5.37	1.26	1.83	0.492	0.217	1.59	0.631	0.316	0.507	0.331	1.87	0.359	0.543	0.191
CCCC(=O)OC(OC(=O)CCC)c1ccc([N+](=O)[O-])o1	> 100	> 100	86.2	32.8	32.1	58.5	> 100	41.4	47.8	28.9	–	–	–	–	–	–	–	–	–	–
CC1=C(SCCC(=O)OC(C[Se]C2=C(C)C(=O)c3ccccc3C2=O)C(=O)NC(C)(C)C)C(=O)c2ccccc2C1=O (stereo not drawn)	2.06	1.68	3.65	1.44	2.96	2.9	3.31	2.74	2.67	3.4	0.44	0.32	2.04	0.384	1.59	1.4	1.07	1.43	1.32	1.57
O=C1C=CC(=O)c2c(O)c(N(CCCl)CCCl)c(Cl)c(O)c21	> 10	> 10	> 7.91	5.68	> 10	6.25	> 10	7.25	6.06	6.01	–	–	–	–	–	–	–	–	–	–
CCOC(=O)Cc1cc(=O)[nH]c(-n2[nH]c(C)c(CCO)c2=O)n1	> 100	> 100	> 100	> 100	> 100	> 100	> 100	> 100	> 100	> 100	–	–	–	–	–	–	–	–	–	–
CN(C)Cc1cc(C(C)(C)C)cc(CN(C)C)c1O	> 100	> 100	> 100	> 100	52.2	> 100	> 100	> 100	> 100	> 100	–	–	–	–	–	–	–	–	–	–
C[C@@H](C[C@H](CCO)c1ccccc1)c1ccc2ccccc2c1	3.42	2.99	3.02	2.67	3.27	2.96	3.84	2.91	2.84	2.78	1.79	1.52	1.52	1.36	1.74	1.6	1.69	1.54	1.46	1.33
Cc1c2ccccc2c(C)n2c1nc1cc(Cl)c(Cl)cc12	> 100	> 100	> 100	> 100	> 100	> 100	> 100	–	> 100	80.3	27.4	> 100	> 100	18.6	> 100	25.2	> 100	18.6	> 100	15.1
C=C1C(=O)OC2(C)CCC1CC1OC1(C)CCC=C(C)CCC2O (stereo not drawn)	> 100	–	> 100	> 100	> 100	> 100	> 100	> 100	> 100	> 100	–	–	–	–	–	–	–	–	–	–
Cc1nc2sc(C(=O)Nc3ccccc3)c(N)c2cc1C(=O)c1ccccc1	> 50	> 50	> 50	> 50	25.8	> 50	> 50	6.19	> 50	12.7	1.66	3.33	2.83	1.59	2.19	3	2.47	1.91	1.56	1.54
